Experiments:
[1] = MDR1 LLC-PK1 and BCRP MDCKII Permeability Assay: permeability coefficient (Papp); type: in vitro ADME; details: MDCK, test article 1 μM, 37° C.
Method: (§1) Both LLC-PK1 and MDR1 transfected LLC-PK1 cells were cultured and plated according to manufacturer's recommendations with the exception that the passage media contained only 2% fetal bovine serum to extend passage time out to seven days.
(§2) BCRP transfected MDCKII canine P-gp knockout cell line was cultured and plated according to manufacturer's recommendations.
(§3) Both positive and negative controls were used to assess functionality of P-gp or BCRP efflux in the assays. Stock solutions for assay controls and the test article were prepared in DMSO for final test concentrations of 10 and 1 μM, respectively. Final organic concentration in the assay was 1%. All dosing solutions contained 10 μM lucifer yellow to monitor LLC-PK1 or MDCKII cell monolayer integrity.
(§4) For the apical to basolateral determination (A to B), 75 μL of the test article in transport buffer were added to the apical side of the individual transwells and 250 μL of basolateral media, without compound or lucifer yellow, were added to each well. For the basolateral to apical determination (B to A), 250 μL of test article in transport buffer were added to each well and 75 μL transport buffer, without compound or lucifer yellow, were added to each transwell. All tests were performed in triplicate, and each compound was tested for both apical to basolateral and basolateral to apical transport. The plates were incubated for 2 hours on a Lab-Line Instruments Titer Orbital Shaker (VWR, West Chester, PA) at 50 rpm and 37° C. with 5% CO2. All culture plates were removed from the incubator and 50 μL of media were removed from the apical and basolateral portion of each well and added to 150 μL of 1 μM labetalol in 2:1 acetonitrile (acetonitrile): H2O, v/v.
(§5) The plates were read using a Molecular Devices (Sunnyvale, CA) Gemini Fluorometer to evaluate the lucifer yellow concentrations at excitation/emission wavelengths of 425/535 nm. These values were accepted when found to be below 2% for apical to basolateral and 5% basolateral to apical flux across the MDR1-transfected LLC-PK1 or BCRP-transfected MDCKII cell monolayers. The plates were sealed and the contents of each well analyzed by LC-MS/MS. The compound concentrations were determined from the ratio of the peak areas of the compound to the internal standard (labetalol) in comparison to the dosing solution.
(§6) The LC-MS/MS system was comprised of an HTS-PAL autosampler (Leap Technologies, Carrboro, NC), an HP1200 HPLC (Agilent, Palo Alto, CA), and a MDS Sciex 4000 Q Trap system (Applied Biosystems, Foster City, CA). […] The total run time, including re-equilibration, for a single injection was 1.2 minutes. Mass spectrometric detection of the analytes was accomplished using the ion spray positive mode. Analyte responses were measured by multiple reaction monitoring (MRM) of transitions unique to each compound (the protonated precursor ion and selected product ions for each test article and m/z 329 to m/z 162 for labetalol, the internal standard).

P-gp (MDR1) = molecular target: T1, P-gp (MDR1) (Homo sapiens, UniProt P08183); assay: Efflux ratio in MDR1 transfected LLC-PK1 cells; type: in vitro ADME; details: pig, Papp(B−A)/Papp(A−B)
T1 construct: expressed in transfected cells; host or cells: LLC-PK1 (porcine kidney) cells transfected with MDR1
T1 sequence (P08183 whole entry): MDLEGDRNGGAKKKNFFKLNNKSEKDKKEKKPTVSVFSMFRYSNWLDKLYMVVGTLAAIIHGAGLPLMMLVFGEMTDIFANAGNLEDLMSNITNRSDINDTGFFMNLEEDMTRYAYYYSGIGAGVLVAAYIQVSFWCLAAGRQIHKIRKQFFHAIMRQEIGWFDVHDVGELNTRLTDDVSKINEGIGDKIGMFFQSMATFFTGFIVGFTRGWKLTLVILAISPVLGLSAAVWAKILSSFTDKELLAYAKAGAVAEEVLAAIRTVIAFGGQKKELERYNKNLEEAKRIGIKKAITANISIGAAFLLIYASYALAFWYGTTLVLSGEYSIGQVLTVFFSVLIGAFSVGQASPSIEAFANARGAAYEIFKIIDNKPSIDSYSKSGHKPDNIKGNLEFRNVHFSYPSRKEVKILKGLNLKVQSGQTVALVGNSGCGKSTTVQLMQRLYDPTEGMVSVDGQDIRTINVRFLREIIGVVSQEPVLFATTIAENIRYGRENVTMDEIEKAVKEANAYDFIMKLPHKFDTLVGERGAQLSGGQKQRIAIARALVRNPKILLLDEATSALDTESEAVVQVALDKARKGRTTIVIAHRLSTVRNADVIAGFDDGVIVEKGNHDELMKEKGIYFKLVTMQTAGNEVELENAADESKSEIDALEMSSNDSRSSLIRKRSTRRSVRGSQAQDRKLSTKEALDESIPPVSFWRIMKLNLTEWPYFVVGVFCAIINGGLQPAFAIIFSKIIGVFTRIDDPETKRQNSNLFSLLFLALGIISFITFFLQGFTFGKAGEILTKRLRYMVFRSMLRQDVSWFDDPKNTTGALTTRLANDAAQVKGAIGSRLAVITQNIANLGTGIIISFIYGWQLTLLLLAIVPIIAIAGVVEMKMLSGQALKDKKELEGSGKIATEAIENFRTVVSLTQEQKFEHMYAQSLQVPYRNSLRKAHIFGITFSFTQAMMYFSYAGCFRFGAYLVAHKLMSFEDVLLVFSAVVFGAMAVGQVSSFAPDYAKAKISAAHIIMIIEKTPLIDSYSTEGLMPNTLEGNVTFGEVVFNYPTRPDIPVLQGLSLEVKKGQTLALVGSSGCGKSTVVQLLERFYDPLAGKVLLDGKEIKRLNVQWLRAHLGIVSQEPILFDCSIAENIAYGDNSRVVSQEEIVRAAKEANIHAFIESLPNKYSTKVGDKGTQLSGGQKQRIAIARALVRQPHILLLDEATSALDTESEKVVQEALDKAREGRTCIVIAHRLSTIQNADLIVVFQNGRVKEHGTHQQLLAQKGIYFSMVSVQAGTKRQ
Method: as §1, §3, §4, §5, §6
(§7) An efflux ratio is calculated from the mean apical to basolateral (A−B) Papp data and basolateral to apical (B−A) Papp data: Efflux ratio=Papp(B−A)/Papp(A−B)

BCRP (hBCRP) = molecular target: T2, BCRP (hBCRP) (Homo sapiens, UniProt Q9UNQ0); assay: Efflux ratio in BCRP transfected MDCKII canine P-gp knockout cells; type: in vitro ADME; details: Papp(B−A)/Papp(A−B), read-out: Efflux ratio MDCKII-hBCRP knock-in,canine pg-P KO
T2 construct: expressed in transfected cells; host or cells: MDCKII (canine kidney) cells, canine P-gp knockout, transfected with BCRP
T2 sequence (Q9UNQ0 1-655): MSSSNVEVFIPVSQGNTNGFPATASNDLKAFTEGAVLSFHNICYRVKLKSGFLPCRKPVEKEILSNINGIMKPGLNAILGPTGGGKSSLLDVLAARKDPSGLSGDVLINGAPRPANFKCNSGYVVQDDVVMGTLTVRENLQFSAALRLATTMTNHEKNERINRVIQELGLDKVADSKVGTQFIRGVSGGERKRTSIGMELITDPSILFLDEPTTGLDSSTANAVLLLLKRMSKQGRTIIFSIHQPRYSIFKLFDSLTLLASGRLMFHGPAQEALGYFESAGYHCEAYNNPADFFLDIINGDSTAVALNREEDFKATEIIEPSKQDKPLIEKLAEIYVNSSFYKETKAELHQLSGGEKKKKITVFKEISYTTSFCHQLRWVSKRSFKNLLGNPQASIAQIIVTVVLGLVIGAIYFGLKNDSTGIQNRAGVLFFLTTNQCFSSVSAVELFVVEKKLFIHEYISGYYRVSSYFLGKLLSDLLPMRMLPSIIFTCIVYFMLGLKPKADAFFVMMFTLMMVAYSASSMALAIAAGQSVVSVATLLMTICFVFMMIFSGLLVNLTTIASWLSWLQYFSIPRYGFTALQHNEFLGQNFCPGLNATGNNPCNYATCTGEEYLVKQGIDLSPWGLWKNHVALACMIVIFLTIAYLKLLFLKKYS
Method: as §2, §3, §4, §5, §6, §7

[2] = tested on: ERK1/2(Thr202/Tyr204) phosphorylation (MEK-dependent) in A375 cells; assay: Cellular Phospho-p44/42 MAPK (Erk1/2) (Thr202/Tyr204) Assay; type: cell-based; details: Homo sapiens, A-375, 1-hour incubation, pERK1/2 (Thr202/Tyr204) In-Cell Western normalized to GAPDH
Method: Inhibition of ERK1/2(Thr202/Tyr204) phosphorylation was determined by the following cellular assay, which comprises incubating cells with a compound for 1 hour and quantifying pERK signal by In-Cell Western on fixed cells and normalizing to GAPDH signal. A375 cells were obtained from the ATCC and grown in DMEM supplemented with 10% fetal bovine serum, penicillin/streptomycin, Glutamax®, non-essential amino acids, and sodium pyruvate. Cells were plated in 96-well plates at 30,000 cells/well and allowed to attach overnight at 37° C./5% CO2. Cells were treated with compounds prepared as a 10-point, 1:3 dilution series (range: 20 μM-0.05 nM; maximum concentration varied from 20 μM-1 μM), with a final DMSO concentration of 0.5%. Control wells contained either 0.5% DMSO alone (no inhibition control) or 1 μM of a potent control compound (complete inhibition control). After a 1-hour incubation, cells were fixed in 3.7% formaldehyde in dPBS (Dulbecco's phosphate-buffered saline) at room temperature for 20 minutes. Cells were then washed with dPBS and permeabilized in 100% MeOH at room temperature for 10 minutes. Following permeabilization, cells were washed in dPBS and incubated in LI-COR Blocking Buffer (LI-COR Biosciences, Cat #927-40000) for 1 hour or longer. Plates were then incubated with an antibody specific for the MEK-dependent ERK1/2 phosphorylation sites, threonine 202 and tyrosine 204 (Cell Signaling Technologies; Cat #9101), downstream of MEK in the MAP kinase signal transduction pathway, as well as GAPDH (Millipore; Cat #MAB374). pErk1/2 (Thr202/Tyr204) antibody was diluted in LI-COR blocking buffer containing 0.05% Tween-20 at 1:250; GAPDH was diluted at 1:2,500. The plates were incubated overnight at 4° C. After washing with PBS/0.05% Tween-20, the cells were incubated with fluorescently-labeled secondary antibodies (Anti-rabbit-Alexa Flour680, Invitrogen Cat #A21109; Anti-mouse-IRDye800CW, LI-COR Biosciences Cat #926-32210, both at 1:1000 dilution) for 1 hour. Cells were then washed, as above, and analyzed for fluorescence at both 680 and 800 nm wavelengths using the Odyssey CLx Infrared Imaging System (LI-COR Biosciences). Phosphorylated Erk1/2 (Thr202/Tyr204) signal was normalized to GAPDH signal for each well.

Papp at 2 h, 1 μM [1] [×10⁻⁶ cm/s]	efflux ratio at 2 h, 1 μM (P-gp (MDR1))	efflux ratio at 2 h, 1 μM (BCRP (hBCRP))	SMILES	IC50 [2] [nM]
26.5	6.7	6.3	Cn1c(Nc2ccc(Br)cc2Cl)c2c(cc1=O)CCN(OCCO)C2=O [Example 10, 8-((4-bromo-2-chlorophenyl)amino)-2-(2-hydroxyethoxy)-7-methyl-3,4-dihydro-2,7-naphthyridine-1,6(2H,7H)-dione]	58
27.5	3.7	2.2	Cn1c(Nc2ccc(C3CC3)cc2F)c2c(cc1=O)CCN(OCCO)C2=O [Example 15, 8-((4-cyclopropyl-2-fluorophenyl)amino)-2-(2-hydroxyethoxy)-7-methyl-3,4-dihydro-2,7-naphthyridine-1,6(2H,7H)-dione]	17
25.9	3.3	1.5	Cn1c(Nc2ccc(C3CC3)cc2Cl)c2c(cc1=O)CCN(OCCO)C2=O [Example 19, 8-((2-chloro-4-cyclopropylphenyl)amino)-2-(2-hydroxyethoxy)-7-methyl-3,4-dihydro-2,7-naphthyridine-1,6(2H,7H)-dione]	29
28.8	4.2	3	CSc1ccc(Nc2c3c(cc(=O)n2C)CCN(OCCO)C3=O)c(Cl)c1 [Example 21, 8-((2-chloro-4-(methylthio)phenyl)amino)-2-(2-hydroxyethoxy)-7-methyl-3,4-dihydro-2,7-naphthyridine-1,6(2H,7H)-dione]	10
30.4	3.2	2	CCc1ccc(Nc2c3c(cc(=O)n2C)CCN(OCCO)C3=O)c(Cl)c1 [Example 23, 8-((2-chloro-4-ethylphenyl)amino)-2-(2-hydroxyethoxy)-7-methyl-3,4-dihydro-2,7-naphthyridine-1,6(2H,7H)-dione]	26
26.4	5.7	14.1	Cn1c(Nc2ccc(SC(F)F)cc2F)c2c(cc1=O)CCN(OCCO)C2=O [Example 25, 8-((4-((difluoromethyl)thio)-2-fluorophenyl)amino)-2-(2-hydroxyethoxy)-7-methyl-3,4-dihydro-2,7-naphthyridine-1,6(2H,7H)-dione]	3
25.1	0.9	1.4	CC(C)ON1CCc2cc(=O)n(C)c(Nc3ccc(I)cc3F)c2C1=O [Example 27, 8-((2-fluoro-4-iodophenyl)amino)-2-isopropoxy-7-methyl-3,4-dihydro-2,7-naphthyridine-1,6(2H,7H)-dione]	142
26.1	1.1	1.1	CCON1CCc2cc(=O)n(C)c(Nc3ccc(I)cc3F)c2C1=O [Example 28, 2-ethoxy-8-((2-fluoro-4-iodophenyl)amino)-7-methyl-3,4-dihydro-2,7-naphthyrdine-1,6(2H,7H)-dione]	26
32.8	1.5	1.1	CON1CCc2cc(=O)n(C)c(Nc3ccc(I)cc3F)c2C1=O [Example 29, 8-((2-fluoro-4-iodophenyl)amino)-2-methoxy-7-methyl-3,4-dihydro-2,7-naphthyridine-1,6(2H,7H)-dione]	17
24.8	5.3	4.4	C[C@H](O)CON1CCc2cc(=O)n(C)c(Nc3ccc(I)cc3F)c2C1=O [Example 31, (S)-8-((2-fluoro-4-iodophenyl)amino)-2-(2-hydroxypropoxy)-7-methyl-3,4-dihydro-2,7-naphthyridine-1,6(2H,7H)-dione]	1
24.8	6.5	5.2	C[C@@H](O)CON1CCc2cc(=O)n(C)c(Nc3ccc(I)cc3F)c2C1=O [Example 32, (R)-8-((2-fluoro-4-iodophenyl)amino)-2-(2-hydroxypropoxy)-7-methyl-3,4-dihydro-2,7-naphthyridine-1,6(2H,7H)-dione]	10
24.7	4	8.3	C[C@H](O)CON1CCc2cc(=O)n(C)c(Nc3ccc(Br)cc3F)c2C1=O [Example 33, (S)-8-((4-bromo-2-fluorophenyl)amino)-2-(2-hydroxypropoxy)-7-methyl-3,4-dihydro-2,7-naphthyridine-1,6(2H,7H)-dione]	19
28.6	2.7	3.3	Cn1c(Nc2ccc(Br)cc2F)c2c(c(Cl)c1=O)CCN(OCCO)C2=O [Example 37, 8-((4-bromo-2-fluorophenyl)amino)-5-chloro-2-(2-hydroxyethoxy)-7-methyl-3,4-dihydro-2,7-naphthyridine-1,6(2H,7H)-dione]	116

From patent US11802127B2, “3,4-dihydro-2,7-naphthyridine-1,6(2H,7H)-diones as MEK inhibitors” (Pfizer Inc., priority 2021, dated 2023)
